Common to all, as to assay type: in vivo
The test system of assay [1] is Abutilon theophrasti Medic. The assay can be described thus: Bioassay of herbicidal activity in greenhouse (further screening). Here is the method: (§1) Determination of herbicidal activity of compounds of the present invention against weeds was carried out by the following procedures:
(§2) Seeds of monocotyledonous and dicotyledonous weeds were sown in nutrition soil in paper pot (7 cm diameter), covered with soil in 1 cm and grown in the greenhouse under good growth conditions (temperature, atmospheric humidity, water supply). The compounds of the present invention as emulsifiable concentrate, were applied in pre-emergence and post-emergence treatment by track sprayer (Engineer Research Ltd., pressure 1.95 kg/cm^2, volume 500 L/hm^2, track speed 1.48 km/h). Pre-emergence treatment was conducted after seeding 24 hours and post-emergence treatment was done when the respective weeds reached predetermined leaf stage (grass weed 2- to 3-leaf stage, broad-leaf weed 2- to 4-leaf stage), the state of growth of the respective weeds were visually observed to determine the growth inhibition rate (%) in accordance with the following evaluation standard.
(§3) Growth inhibition rate (%): 0=no discernible action: 100=all weeds dead or not emerged.

For assay [2], the system named is Echinochloa crus-galli (L.) Beauv. The assay is described as above. Here is the method: as §1, §2, §3
Assay [3] has as its system Setaria glauca (L.) Beauv. Described as above. Here is the method:
as §1, §2, §3

The subject of assay [4] is Zinnia elegans Jacq. Described as above. How it is done: as §1, §2, §3
The test system of assay [5] is broad-leaf weeds and grass weeds. The assay can be described thus: General screening of herbicidal activity in greenhouse.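 Also: 0 means no visible effect and 100 means all weeds dead or not emerged.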 As to conditions: 1000 g a.i./hm^2. How it is done: as §1, §2, §3

Results on two compounds are retold here after patent US10550111B2, “Pyrimidine urea compound containing isoxazolines and use thereof” (SHENYANG SINOCHEM AGROCHEMICALS R&D CO., LTD, priority 2014, dated 2020).

Regarding `CC(C)OC(=O)C1(C)CC(c2cc(-n3c(=O)cc(C(F)(F)F)n(C)c3=O)c(F)cc2Cl)=NO1` (stereo not shown) [Compound 10], the “Growth inhibition rate, Post-emergence treatment, Abutilon theophrasti Medic.” value in assay [1] (dose 7.5 g a.i./hm^2), in assay [1] (dose 15 g a.i./hm^2), in assay [1] (dose 30.0 g a.i./hm^2), in assay [1] (dose 60.0 g a.i./hm^2) and in assay [1] (dose 120.0 g a.i./hm^2) was 100% each time. Besides, the “Growth inhibition rate, Post-emergence treatment, Echinochloa crus-galli (L.) Beauv.” value in assay [2] (dose 7.5 g a.i./hm^2) is 90%; in assay [2] (dose 15 g a.i./hm^2), 98%; in assay [2] (dose 30.0 g a.i./hm^2), 100%; in assay [2] (dose 60.0 g a.i./hm^2) it was 100%; in assay [2] (dose 120.0 g a.i./hm^2), 100%. In addition, the “Growth inhibition rate, Post-emergence treatment, Setaria glauca (L.) Beauv.” value in assay [3] (dose 7.5 g a.i./hm^2) is reported as 90%; in assay [3] (dose 15 g a.i./hm^2), 100%; in assay [3] (dose 30.0 g a.i./hm^2), 100%; in assay [3] (dose 60.0 g a.i./hm^2), 100%; in assay [3] (dose 120.0 g a.i./hm^2), 100%. Besides, the “Growth inhibition rate, Post-emergence treatment, Zinnia elegans Jacq.” value in assay [4] (dose 7.5 g a.i./hm^2), in assay [4] (dose 15 g a.i./hm^2), in assay [4] (dose 30.0 g a.i./hm^2), in assay [4] (dose 60.0 g a.i./hm^2) and in assay [4] (dose 120.0 g a.i./hm^2) was 100% in each case. The “pre-emergence and post-emergence herbicidal activity against broad-leaf weeds and grass weeds” value in assay [5] is recorded as “good”.

In the case of `CSCCC(=O)OCC1(C)CC(c2cc(-n3c(=O)cc(C(F)(F)F)n(C)c3=O)c(F)cc2Cl)=NO1` (stereo not shown) [Compound 54], the “Growth inhibition rate, Post-emergence treatment, Abutilon theophrasti Medic.” value in assay [1] (dose 37.5 g a.i./hm^2), in assay [1] (dose 150 g a.i./hm^2) and in assay [1] (dose 600 g a.i./hm^2) was 100% each time. For the same compound, the “Growth inhibition rate, Pre-emergence treatment, Abutilon theophrasti Medic.” value in assay [1] (dose 37.5 g a.i./hm^2) is 0%; in assay [1] (dose 150 g a.i./hm^2) it was 35%; in assay [1] (dose 600 g a.i./hm^2), 90%. The “Growth inhibition rate, Post-emergence treatment, Echinochloa crus-galli (L.) Beauv.” value amounted to 10% in assay [2] (dose 37.5 g a.i./hm^2), 20% in assay [2] (dose 150 g a.i./hm^2) and 75% in assay [2] (dose 600 g a.i./hm^2). For the same compound, the “Growth inhibition rate, Pre-emergence treatment, Echinochloa crus-galli (L.) Beauv.” value in assay [2] (dose 37.5 g a.i./hm^2) amounted to 0%; in assay [2] (dose 150 g a.i./hm^2), 15%; in assay [2] (dose 600 g a.i./hm^2), 80%. In addition, the “Growth inhibition rate, Post-emergence treatment, Setaria glauca (L.) Beauv.” value in assay [3] (dose 37.5 g a.i./hm^2) is listed as 35%; in assay [3] (dose 150 g a.i./hm^2), 70%; in assay [3] (dose 600 g a.i./hm^2) it was 98%. The “Growth inhibition rate, Pre-emergence treatment, Setaria glauca (L.) Beauv.” value turned out to be 0% in assay [3] (dose 37.5 g a.i./hm^2), 20% in assay [3] (dose 150 g a.i./hm^2) and 60% in assay [3] (dose 600 g a.i./hm^2). In addition, the results for the “Growth inhibition rate, Post-emergence treatment, Zinnia elegans Jacq.” value in assay [4] (dose 37.5 g a.i./hm^2), in assay [4] (dose 150 g a.i./hm^2) and in assay [4] (dose 600 g a.i./hm^2) were 90%, 100% and 100%, respectively. Besides, the “Growth inhibition rate, Pre-emergence treatment, Zinnia elegans Jacq.” value in assay [4] (dose 37.5 g a.i./hm^2) is given as 0%; in assay [4] (dose 150 g a.i./hm^2) it was 20%; in assay [4] (dose 600 g a.i./hm^2) it was 60%. Further, the “pre-emergence and post-emergence herbicidal activity against broad-leaf weeds and grass weeds” value in assay [5] is on record as “good”.
